For orientation: IC50 means the concentration needed to halve the response being measured. High values mean weaker potency, low ones greater potency.

Data set [1] in a line: Inhibition of LuxP/LuxQ mediated AI2-dependent quorum sensing in Vibrio harveyi MM32 incubated for 4 to 6 hrs measured every 30 mins by luminescence assay.
The next data set relates to Vibrio harveyi. In words: Growth inhibition of Vibrio harveyi MM32 by spectrophotometry. It is filed as organism-based. Particulars: in vivo.

As for `Fc1ccccc1-c1ccc(CNCc2ccco2)o1`, the IC50 in data set [1] came out at 14.8 µM. Besides, in the data set on Vibrio harveyi, the “growth inhibition (GI)” value was “Toxic”.

Take `C=CCOC(=O)C1=CS(=O)(=O)c2ccccc21`: inhibition in data set [1] was half-maximal at 3.06 µM (IC50). Besides, the “growth inhibition (GI)” value with Vibrio harveyi was “Toxic”.

In data set [1], `Cc1cc(=O)n2nc(N)c(/N=N/c3ccccc3)c2[nH]1` registered a 50% inhibitory concentration (IC50) of 19.8 µM. In the data set on Vibrio harveyi, the “growth inhibition (GI)” value is given as “Toxic”.

In turn, `O=C(O)c1ccc(-c2c(Cl)cc([N+](=O)[O-])cc2Cl)o1` came in with a half-inhibitory concentration (IC50) in data set [1] of 40.1 µM. Also, the “growth inhibition (GI)” value in the data set with Vibrio harveyi was “Non-toxic”.

Regarding `CSC1=CS(=O)(=O)c2ccccc21`, in data set [1], the concentration for half-maximal inhibition (IC50) came out at 41 µM. Moreover, the “growth inhibition (GI)” value in the data set with Vibrio harveyi is given as “Toxic”.

As to `CSc1nccc(Oc2ccccc2Cl)n1`, the midpoint of inhibition in data set [1], the IC50, lay at 3.42 µM. In addition, in the data set with Vibrio harveyi, the “growth inhibition (GI)” value is listed as “Non-toxic”.

Take `Cn1cnnc1SCC(=O)Nc1nc2ccccc2s1`: half-maximal inhibition in data set [1] (IC50) required 5.51 µM. The “growth inhibition (GI)” value in the data set with Vibrio harveyi is “Non-toxic”.

Values taken from ChEMBL document CHEMBL2150902, “Novel AI-2 quorum sensing inhibitors in Vibrio harveyi identified through structure-based virtual screening” (Bioorg Med Chem Lett, 2012).
